Each structure is given as a SMILES string.

The target of this test is Phosphodiesterase 4 (Bos taurus). As to the kind of experiment: In vitro inhibition of bovine smooth muscle phosphodiesterase 4.

As usually defined, the IC50 is the midpoint of a concentration-inhibition curve. `COc1ccc(-c2cc(Cc3ccccc3)c(O)nn2)cc1OC` came in with an IC50 of 8000 nM.

Consider `COc1ccc(-c2ccc(=O)n(CCCCCCN=C(N)N)n2)cc1OC`, for which the half-maximal inhibitory concentration (IC50) came out at 60000 nM.

The molecule `COc1ccc(-c2cc(CCCc3ccccc3)c(O)nn2)cc1OC` came in with an IC50 of more than 10000 nM. The figure for `COc1ccc(-c2ccc(=O)n(CCCCCc3ccccc3)n2)cc1OC` is 0.9 nM; for `COc1ccc(-c2ccc(=O)n(CCCCCCN)n2)cc1OC` it is 20 nM. The figure for `COc1ccc(-c2ccc(=O)n(CCCc3ccccc3)n2)cc1OC` is 20 nM; for `COc1ccc(-c2ccc(=O)n(Cc3ccccc3)n2)cc1OC` it is 60 nM; for `COc1ccc(-c2ccc(O)nn2)cc1OC` it is 2000 nM. Then `COc1ccc(-c2ccc(=O)n(CCCCCCc3ccccc3)n2)cc1OC`, with 80 nM.
